Assay results: patent US10167262B2, “Herbicidal substituted 3-arylpyrazoles” (FMC CORPORATION, priority 2014, dated 2019)

How the values were obtained:
Format in all cases: in vivo
[1] = system: goosegrass (Eleusine indica); experiment: Test E pre-/postemergence greenhouse test, plant response rating 0-100; conditions: Preemergence, scale 0 to 100
[2] = system: giant foxtail (Setaria faberii); experiment: as above; conditions: Preemergence, scale 0 to 100
[3] = system: surinam grass (Brachiaria decumbens); experiment: as above; conditions: Preemergence, scale 0 to 100
Method in brief: (§1)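 Greenhouse pot assay, two application timings. Pre- to silt loam at planting; post- to 1–4-leaf plants. Visual 0–100 score at 14–21 d.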

[4] = system: velvetleaf (Abutilon theophrasti); experiment: as above; conditions: Preemergence, scale 0 to 100
Method in brief: as §1

[5] = system: kochia (Kochia scoparia); experiment: as above; conditions: Preemergence, scale 0 to 100
Method in brief: as §1

[6] = system: ragweed (common ragweed, Ambrosia elatior); experiment: as above; conditions: Preemergence, scale 0 to 100
Method in brief: as §1

[7] = system: field bindweed (Convolvulus arvensis); experiment: as above; conditions: scale 0 to 100; for Plant response rating, Field Bindweed: Postemergence; for Field Bindweed plant response rating: Preemergence
Method in brief: as §1

[8] = system: fall panicum (Panicum dichotomiflorum); experiment: as above; conditions: scale 0 to 100; for Plant response rating, Panicum, Fall: Postemergence; for Panicum, Fall plant response rating: Preemergence
Method in brief: as §1

[9] = system: smartweed (ladysthumb smartweed, Polygonum persicaria); experiment: as above; conditions: Postemergence, scale 0 to 100
[10] = system: yellow nutsedge (Cyperus esculentus); experiment: as above; conditions: Preemergence, scale 0 to 100
[11] = system: johnsongrass (Sorghum halepense); experiment: as above; conditions: Preemergence, scale 0 to 100
[12] = system: smartweed (ladysthumb smartweed, Polygonum persicaria); experiment: as above; conditions: scale 0 to 100; for Plant response rating, Smartweed: Postemergence; for Smartweed plant response rating: Preemergence
[13] = system: morningglory (Ipomoea coccinea); experiment: as above; conditions: Preemergence, scale 0 to 100
[14] = system: green foxtail (Setaria viridis); experiment: as above; conditions: Preemergence, scale 0 to 100
[15] = system: large (Lg) crabgrass (Digitaria sanguinalis); experiment: as above; conditions: Preemergence, scale 0 to 100
[16] = system: waterhemp_RES1, (ALS & Triazine resistant common waterhemp, Amaranthus rudis); experiment: Test E postemergence greenhouse test, plant response rating 0-100; conditions: scale 0 to 100
Method in brief: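 Resistant waterhemp biotypes grown in peat/vermiculite medium and treated postemergence at 2–18 cm height (1- to 4-leaf stage). Kept in greenhouse 14 to 21 days, then visually rated against untreated controls on a 0–100 scale (0 no effect, 100 complete control).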

SMILES: O=C(c1ccccc1)c1cn(S(=O)(=O)CCl)nc1-c1cc(Cl)cc(Cl)c1 [Compound 1]
- Goosegrass plant response rating ([1]; 31 g ai/ha): 0
- Goosegrass plant response rating ([1]; 62 g ai/ha): 0
- Goosegrass plant response rating ([1]; 125 g ai/ha): 0
- Goosegrass plant response rating ([1]; 250 g ai/ha): 0
- Goosegrass plant response rating ([1]; 500 g ai/ha): 0
- Foxtail, Giant plant response rating ([2]; 31 g ai/ha): 0
- Foxtail, Giant plant response rating ([2]; 62 g ai/ha): 0
- Foxtail, Giant plant response rating ([2]; 125 g ai/ha): 0
- Foxtail, Giant plant response rating ([2]; 250 g ai/ha): 0
- Foxtail, Giant plant response rating ([2]; 500 g ai/ha): 0
- Surinam Grass plant response rating ([3]; 31 g ai/ha): 0
- Surinam Grass plant response rating ([3]; 62 g ai/ha): 0
- Surinam Grass plant response rating ([3]; 125 g ai/ha): 0
- Surinam Grass plant response rating ([3]; 250 g ai/ha): 0
- Surinam Grass plant response rating ([3]; 500 g ai/ha): 0
- Velvetleaf plant response rating ([4]; 31 g ai/ha): 35
- Velvetleaf plant response rating ([4]; 62 g ai/ha): 40
- Velvetleaf plant response rating ([4]; 125 g ai/ha): 50
- Velvetleaf plant response rating ([4]; 250 g ai/ha): 35
- Velvetleaf plant response rating ([4]; 500 g ai/ha): 50
- Kochia plant response rating ([5]; 31 g ai/ha): 0
- Kochia plant response rating ([5]; 62 g ai/ha): 0
- Kochia plant response rating ([5]; 125 g ai/ha): 0
- Kochia plant response rating ([5]; 250 g ai/ha): 50
- Kochia plant response rating ([5]; 500 g ai/ha): 98
- Ragweed plant response rating ([6]; 31 g ai/ha): 50
- Ragweed plant response rating ([6]; 250 g ai/ha): 75
- Ragweed plant response rating ([6]; 500 g ai/ha): 75
- Plant response rating, Field Bindweed ([7]; 31 g ai/ha): 0
- Plant response rating, Field Bindweed ([7]; 62 g ai/ha): 0
- Plant response rating, Field Bindweed ([7]; 125 g ai/ha): 0
- Plant response rating, Field Bindweed ([7]; 250 g ai/ha): 0
- Plant response rating, Field Bindweed ([7]; 500 g ai/ha): 0
- Field Bindweed plant response rating ([7]; 31 g ai/ha): 0
- Field Bindweed plant response rating ([7]; 62 g ai/ha): 0
- Field Bindweed plant response rating ([7]; 125 g ai/ha): 0
- Field Bindweed plant response rating ([7]; 250 g ai/ha): 0
- Field Bindweed plant response rating ([7]; 500 g ai/ha): 0
- Plant response rating, Panicum, Fall ([8]; 31 g ai/ha): 0
- Plant response rating, Panicum, Fall ([8]; 62 g ai/ha): 0
- Plant response rating, Panicum, Fall ([8]; 125 g ai/ha): 0
- Plant response rating, Panicum, Fall ([8]; 250 g ai/ha): 0
- Plant response rating, Panicum, Fall ([8]; 500 g ai/ha): 0
- Panicum, Fall plant response rating ([8]; 31 g ai/ha): 0
- Panicum, Fall plant response rating ([8]; 62 g ai/ha): 0
- Panicum, Fall plant response rating ([8]; 125 g ai/ha): 0
- Panicum, Fall plant response rating ([8]; 250 g ai/ha): 0
- Panicum, Fall plant response rating ([8]; 500 g ai/ha): 0
- Plant response rating, Smartweed ([9]; 31 g ai/ha): 0
- Plant response rating, Smartweed ([9]; 62 g ai/ha): 35
- Plant response rating, Smartweed ([9]; 125 g ai/ha): 50
- Plant response rating, Smartweed ([9]; 250 g ai/ha): 75
- Nutsedge, Yellow plant response rating ([10]; 31 g ai/ha): 0
- Nutsedge, Yellow plant response rating ([10]; 62 g ai/ha): 0
- Nutsedge, Yellow plant response rating ([10]; 125 g ai/ha): 0
- Nutsedge, Yellow plant response rating ([10]; 250 g ai/ha): 0
- Johnsongrass plant response rating ([11]; 31 g ai/ha): 0
- Johnsongrass plant response rating ([11]; 62 g ai/ha): 0
- Johnsongrass plant response rating ([11]; 125 g ai/ha): 0
- Johnsongrass plant response rating ([11]; 250 g ai/ha): 20
- Johnsongrass plant response rating ([11]; 500 g ai/ha): 20
- Plant response rating, Smartweed ([12]; 500 g ai/ha): 85
- Smartweed plant response rating ([12]; 31 g ai/ha): 0
- Smartweed plant response rating ([12]; 125 g ai/ha): 98
- Smartweed plant response rating ([12]; 250 g ai/ha): 98
- Smartweed plant response rating ([12]; 500 g ai/ha): 98
- Morningglory plant response rating ([13]; 31 g ai/ha): 0
- Morningglory plant response rating ([13]; 62 g ai/ha): 0
- Morningglory plant response rating ([13]; 125 g ai/ha): 0
- Morningglory plant response rating ([13]; 250 g ai/ha): 0
- Morningglory plant response rating ([13]; 500 g ai/ha): 0
- Foxtail, Green plant response rating ([14]; 31 g ai/ha): 0
- Foxtail, Green plant response rating ([14]; 62 g ai/ha): 0
- Foxtail, Green plant response rating ([14]; 125 g ai/ha): 0
- Foxtail, Green plant response rating ([14]; 250 g ai/ha): 0
- Foxtail, Green plant response rating ([14]; 500 g ai/ha): 15
- Crabgrass, Large plant response rating ([15]; 31 g ai/ha): 0
- Crabgrass, Large plant response rating ([15]; 62 g ai/ha): 0
- Crabgrass, Large plant response rating ([15]; 125 g ai/ha): 0
- Crabgrass, Large plant response rating ([15]; 250 g ai/ha): 0
- Crabgrass, Large plant response rating ([15]; 500 g ai/ha): 0

SMILES: CCn1cc(C(=O)c2cccs2)c(-c2cc(Cl)cc(Cl)c2)n1 [Compound 18]
- Plant response rating, Field Bindweed ([7]; 31 g ai/ha): 0
- Plant response rating, Field Bindweed ([7]; 62 g ai/ha): 15
- Plant response rating, Field Bindweed ([7]; 125 g ai/ha): 25
- Plant response rating, Field Bindweed ([7]; 250 g ai/ha): 25
- Plant response rating, Field Bindweed ([7]; 500 g ai/ha): 35
- Plant response rating, Panicum, Fall ([8]; 31 g ai/ha): 0
- Plant response rating, Panicum, Fall ([8]; 62 g ai/ha): 0
- Plant response rating, Panicum, Fall ([8]; 125 g ai/ha): 0
- Plant response rating, Panicum, Fall ([8]; 250 g ai/ha): 0
- Plant response rating, Panicum, Fall ([8]; 500 g ai/ha): 10
- Plant response rating, Smartweed ([12]; 500 g ai/ha): 20
- Plant response rating, Waterhemp_RES1 ([16]; 31 g ai/ha): 60
- Plant response rating, Waterhemp_RES1 ([16]; 62 g ai/ha): 70
- Plant response rating, Waterhemp_RES1 ([16]; 125 g ai/ha): 85
- Plant response rating, Waterhemp_RES1 ([16]; 250 g ai/ha): 95
- Plant response rating, Waterhemp_RES1 ([16]; 500 g ai/ha): 95

SMILES: Fc1cccc(NN=C(c2ccccc2)c2c[nH]nc2-c2cc(Cl)cc(Cl)c2)c1 [Compound 58]
- Plant response rating, Field Bindweed ([7]; 31 g ai/ha): 0
- Plant response rating, Field Bindweed ([7]; 62 g ai/ha): 0
- Plant response rating, Field Bindweed ([7]; 125 g ai/ha): 0
- Plant response rating, Field Bindweed ([7]; 250 g ai/ha): 0
- Plant response rating, Field Bindweed ([7]; 500 g ai/ha): 10
- Plant response rating, Panicum, Fall ([8]; 31 g ai/ha): 0
- Plant response rating, Panicum, Fall ([8]; 250 g ai/ha): 0
- Plant response rating, Smartweed ([9]; 31 g ai/ha): 0
- Plant response rating, Smartweed ([9]; 125 g ai/ha): 50

SMILES: C=CCn1cc(C(=O)c2ccccc2)c(-c2cc(Cl)cc(Cl)c2)n1 [Compound 60]
- Plant response rating, Field Bindweed ([7]; 16 g ai/ha): 0
- Plant response rating, Field Bindweed ([7]; 31 g ai/ha): 0
- Plant response rating, Field Bindweed ([7]; 62 g ai/ha): 0
- Plant response rating, Field Bindweed ([7]; 125 g ai/ha): 0
- Plant response rating, Field Bindweed ([7]; 250 g ai/ha): 0
- Plant response rating, Panicum, Fall ([8]; 31 g ai/ha): 0
- Plant response rating, Panicum, Fall ([8]; 62 g ai/ha): 0
- Plant response rating, Panicum, Fall ([8]; 125 g ai/ha): 0
- Plant response rating, Panicum, Fall ([8]; 250 g ai/ha): 0
- Plant response rating, Smartweed ([9]; 31 g ai/ha): 0
- Plant response rating, Smartweed ([9]; 62 g ai/ha): 0
- Plant response rating, Smartweed ([9]; 125 g ai/ha): 0
- Plant response rating, Smartweed ([9]; 250 g ai/ha): 0
